# Results from ChEMBL document CHEMBL4049398, “Microscale High-Throughput Experimentation as an Enabling Technology in Drug Discovery: Application in the Discovery of (Piperidinyl)pyridinyl-1H-benzimidazole Diacylglycerol Acyltransferase 1 Inhibitors” (J Med Chem, 2017).
# Experiments:
# [1] = target: T1, Diacylglycerol O-acyltransferase 1 (Homo sapiens, UniProt O75907); test: Inhibition of human DGAT1 expressed in yeast membrane fraction assessed as inhibition of triglyceride formation using diolein/oleoyl-CoA as substrate measured after 1 hr by 7-diethylamino-3-(4'-maleimidylphenyl)-4-methylcoumarin based fluorescence analysis; type: cell membranes
# T1 sequence (O75907 whole entry): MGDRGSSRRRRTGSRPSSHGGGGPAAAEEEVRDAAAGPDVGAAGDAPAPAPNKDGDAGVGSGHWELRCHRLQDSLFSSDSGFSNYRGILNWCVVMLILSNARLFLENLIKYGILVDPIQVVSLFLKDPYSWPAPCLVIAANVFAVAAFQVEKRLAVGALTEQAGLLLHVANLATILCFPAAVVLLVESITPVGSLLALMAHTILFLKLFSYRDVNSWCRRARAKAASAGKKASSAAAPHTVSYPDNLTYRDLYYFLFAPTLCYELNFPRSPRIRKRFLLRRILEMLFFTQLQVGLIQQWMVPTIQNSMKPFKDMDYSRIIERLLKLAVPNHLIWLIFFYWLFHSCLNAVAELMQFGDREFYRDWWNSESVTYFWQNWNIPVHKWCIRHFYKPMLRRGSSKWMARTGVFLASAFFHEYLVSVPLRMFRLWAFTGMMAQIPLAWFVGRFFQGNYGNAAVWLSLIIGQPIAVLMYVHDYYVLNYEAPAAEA
# Cytochrome P450 2C9 = Cytochrome P450 2C9 (Homo sapiens, UniProt P11712); test: Inhibition of CYP2C9 (unknown origin); type: ADME
# [2] = Solubility of the compound at pH 2; type: physicochemical; details: buffer
# Cytochrome P450 3A4 = Cytochrome P450 3A4 (Homo sapiens, UniProt P08684); test: Inhibition of CYP3A4 (unknown origin); type: ADME
# [3] = target: T2, Nuclear receptor subfamily 1 group I member 2 (Homo sapiens, UniProt O75469); test: Inhibition of PXR (unknown origin); type: ADME
# T2 sequence (O75469 whole entry): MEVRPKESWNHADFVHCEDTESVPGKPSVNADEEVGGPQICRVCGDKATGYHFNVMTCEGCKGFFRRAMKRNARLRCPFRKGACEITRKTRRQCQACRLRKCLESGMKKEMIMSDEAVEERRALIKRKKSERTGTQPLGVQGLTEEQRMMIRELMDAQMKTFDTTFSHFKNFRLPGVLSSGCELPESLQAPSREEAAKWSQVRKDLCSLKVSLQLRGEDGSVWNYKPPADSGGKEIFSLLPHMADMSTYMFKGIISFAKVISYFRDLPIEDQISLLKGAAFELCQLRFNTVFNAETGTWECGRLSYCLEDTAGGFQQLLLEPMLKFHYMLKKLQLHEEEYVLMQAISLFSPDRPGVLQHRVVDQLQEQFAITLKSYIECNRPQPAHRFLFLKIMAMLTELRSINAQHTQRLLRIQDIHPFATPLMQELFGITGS
# [4] = Lipophilicity, log D of the compound; type: physicochemical; details: octanol/water
# Mus musculus [5] = test: Reduction in triglyceride level in mouse plasma at 10 mg/kg,po after 18 hrs by lipid tolerance test; type: functional
# Mus musculus [6] = test: Reduction in triglyceride level in mouse plasma at 30 mg/kg, po after 18 hrs by lipid tolerance test; type: functional
# [7] = Solubility of the compound at pH 7; type: physicochemical; details: buffer
# [8] = target: Voltage-gated inwardly rectifying potassium channel KCNH2 (Homo sapiens, UniProt Q12809); test: Inhibition of MK499 binding to human ERG
# Rattus norvegicus = test: Intrinsic clearance Wistar Han rat at 1 mg/kg, iv; type: ADME, organism-based; details: in vivo
# [9] = target: T3, Diacylglycerol O-acyltransferase 1 (Mus musculus, UniProt Q9Z2A7); test: Inhibition of mouse DGAT1 assessed as inhibition of triglyceride formation
# T3 sequence (Q9Z2A7 whole entry): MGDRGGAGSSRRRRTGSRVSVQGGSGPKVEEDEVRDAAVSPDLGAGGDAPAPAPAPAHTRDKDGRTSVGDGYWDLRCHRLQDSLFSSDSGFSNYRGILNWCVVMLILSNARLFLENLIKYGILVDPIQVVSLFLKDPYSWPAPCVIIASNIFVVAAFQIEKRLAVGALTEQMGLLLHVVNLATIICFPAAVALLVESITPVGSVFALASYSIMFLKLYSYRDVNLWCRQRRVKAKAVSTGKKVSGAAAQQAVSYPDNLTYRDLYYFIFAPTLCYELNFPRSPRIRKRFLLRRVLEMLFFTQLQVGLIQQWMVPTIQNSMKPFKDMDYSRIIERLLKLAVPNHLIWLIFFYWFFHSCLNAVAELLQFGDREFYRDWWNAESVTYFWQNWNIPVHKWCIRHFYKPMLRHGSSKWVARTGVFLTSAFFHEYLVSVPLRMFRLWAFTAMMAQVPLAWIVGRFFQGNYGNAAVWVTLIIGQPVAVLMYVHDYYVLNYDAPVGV
# Chain of Cytochrome P450 3A4 (P08684 whole entry): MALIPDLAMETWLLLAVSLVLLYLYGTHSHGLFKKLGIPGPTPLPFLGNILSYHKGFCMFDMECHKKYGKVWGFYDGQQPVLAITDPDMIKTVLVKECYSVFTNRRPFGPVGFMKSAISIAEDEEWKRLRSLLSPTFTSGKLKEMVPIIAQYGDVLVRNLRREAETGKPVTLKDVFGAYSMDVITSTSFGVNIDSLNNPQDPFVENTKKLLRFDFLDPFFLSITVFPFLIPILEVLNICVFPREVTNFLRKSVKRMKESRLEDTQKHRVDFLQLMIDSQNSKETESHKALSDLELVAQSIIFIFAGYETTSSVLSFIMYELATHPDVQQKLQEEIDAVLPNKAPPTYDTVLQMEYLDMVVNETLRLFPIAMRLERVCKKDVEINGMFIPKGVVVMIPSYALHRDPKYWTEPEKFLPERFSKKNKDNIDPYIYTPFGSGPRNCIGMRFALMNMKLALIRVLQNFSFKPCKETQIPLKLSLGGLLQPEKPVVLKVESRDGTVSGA
# Chain of Cytochrome P450 2C9 (P11712 whole entry): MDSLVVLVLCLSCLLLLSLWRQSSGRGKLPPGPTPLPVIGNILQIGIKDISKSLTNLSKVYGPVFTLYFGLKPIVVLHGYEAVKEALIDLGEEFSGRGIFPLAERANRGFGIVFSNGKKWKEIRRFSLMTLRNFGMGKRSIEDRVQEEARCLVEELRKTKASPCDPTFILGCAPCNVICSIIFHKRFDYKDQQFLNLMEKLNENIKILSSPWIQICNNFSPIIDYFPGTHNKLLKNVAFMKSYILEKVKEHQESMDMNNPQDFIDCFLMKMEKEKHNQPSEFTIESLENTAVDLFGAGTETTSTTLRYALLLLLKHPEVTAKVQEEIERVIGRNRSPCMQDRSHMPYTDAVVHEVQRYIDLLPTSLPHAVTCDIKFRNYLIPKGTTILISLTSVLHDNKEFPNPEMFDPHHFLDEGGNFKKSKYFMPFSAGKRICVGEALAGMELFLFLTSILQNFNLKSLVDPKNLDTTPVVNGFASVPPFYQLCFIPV
# Chain of Voltage-gated inwardly rectifying potassium channel KCNH2 (Q12809 whole entry): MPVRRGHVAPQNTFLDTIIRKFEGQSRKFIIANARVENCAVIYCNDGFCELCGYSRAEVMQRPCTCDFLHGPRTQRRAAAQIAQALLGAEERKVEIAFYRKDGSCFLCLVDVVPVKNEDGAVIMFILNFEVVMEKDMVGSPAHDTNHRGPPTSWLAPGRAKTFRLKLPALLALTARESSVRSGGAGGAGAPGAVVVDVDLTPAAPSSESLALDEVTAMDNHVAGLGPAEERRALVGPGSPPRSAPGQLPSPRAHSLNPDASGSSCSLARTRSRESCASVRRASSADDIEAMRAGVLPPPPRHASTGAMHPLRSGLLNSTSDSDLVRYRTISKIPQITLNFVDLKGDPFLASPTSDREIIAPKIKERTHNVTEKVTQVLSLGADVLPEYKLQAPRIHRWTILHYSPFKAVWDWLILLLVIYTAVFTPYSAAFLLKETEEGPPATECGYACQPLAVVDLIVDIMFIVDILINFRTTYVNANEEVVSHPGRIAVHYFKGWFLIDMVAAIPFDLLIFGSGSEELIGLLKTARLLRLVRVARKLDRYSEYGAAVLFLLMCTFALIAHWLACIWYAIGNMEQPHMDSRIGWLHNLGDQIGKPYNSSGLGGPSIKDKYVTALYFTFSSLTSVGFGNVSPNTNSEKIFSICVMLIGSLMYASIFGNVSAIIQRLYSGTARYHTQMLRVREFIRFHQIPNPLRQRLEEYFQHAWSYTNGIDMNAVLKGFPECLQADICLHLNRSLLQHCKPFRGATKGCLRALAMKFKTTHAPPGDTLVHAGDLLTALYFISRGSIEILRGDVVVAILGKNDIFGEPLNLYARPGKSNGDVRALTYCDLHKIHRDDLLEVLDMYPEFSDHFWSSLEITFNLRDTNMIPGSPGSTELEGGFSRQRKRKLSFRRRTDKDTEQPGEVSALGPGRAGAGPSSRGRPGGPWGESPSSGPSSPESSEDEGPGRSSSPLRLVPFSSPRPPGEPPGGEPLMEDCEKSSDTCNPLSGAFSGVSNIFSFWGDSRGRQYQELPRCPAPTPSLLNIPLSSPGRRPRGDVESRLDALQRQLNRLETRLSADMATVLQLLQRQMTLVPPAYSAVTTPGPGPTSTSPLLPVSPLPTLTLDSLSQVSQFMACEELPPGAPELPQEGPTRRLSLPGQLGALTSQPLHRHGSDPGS
Compound,IC50 [1],IC50 (Cytochrome P450 2C9),solubility ([2]; read-out: solubility),IC50 (Cytochrome P450 3A4),IC50 [3],logD ([4]; read-out: logD),solubility ([7]; read-out: solubility),IC50 [8],other results
O=C1OC2(CCN(c3ccc(-c4nc5cc(Cl)ccc5[nH]4)cn3)CC2)c2cnccc21,0.066 µM,–,–,–,–,–,–,–,–
FC(F)(F)c1ccc2[nH]c(-c3ccc(N4CCC(c5ccccc5)(c5ccccc5)CC4)nc3)nc2c1,1.64 µM,–,–,–,–,–,–,–,–
O=C(O)C[C@@H]1COC2(CCN(c3ccc(-c4nc5cc(C(F)(F)F)ccc5[nH]4)cn3)CC2)C1,–,> 50 µM,171 µM,> 50 µM,> 30 µM,1.44,158 µM,–,inhibition in vivo at 10 mg/kg (Mus musculus [5]): 32%; inhibition in vivo at 30 mg/kg (Mus musculus [6]): 54%
O=C(O)C1CCC2(CCN(c3ccc(-c4nc5cc(C(F)(F)F)ccc5[nH]4)cn3)CC2)CO1 (stereo unspecified),0.364 µM,–,167 µM,–,–,1.54,154 µM,–,–
Clc1ccc2[nH]c(-c3ccc(N4C[C@@H]5C[C@H]4CN5c4ccccc4)nc3)nc2c1,> 10 µM,–,–,–,–,–,–,–,–
O=C(O)C1CCC2(CCN(c3ccc(-c4nc5cc(C(F)(F)F)ccc5[nH]4)cn3)CC2)OC1 (stereo unspecified),–,> 50 µM,174 µM,> 50 µM,> 30 µM,1.52,163 µM,14.7 µM,–
FC(F)(F)c1ccc2[nH]c(-c3ccc(N4CCC(c5ccccn5)CC4)nc3)nc2c1,0.062 µM,–,–,–,–,–,–,–,–
FC(F)(F)c1ccc2[nH]c(-c3ccc(N4CCC5(CC4)OC(Cc4cc(Cl)cc(Cl)c4)c4ccccc45)nc3)nc2c1 (stereo unspecified),8.7 µM,–,–,–,–,–,–,–,–
O=C(O)C[C@H]1COC2(CCN(c3ccc(-c4nc5cc(C(F)(F)F)ccc5[nH]4)cn3)CC2)C1,–,> 50 µM,170 µM,> 50 µM,> 30 µM,1.45,153 µM,–,–
O=C1OC2(CCN(c3ccc(-c4nc5cc(Cl)ccc5[nH]4)cn3)CC2)c2ncccc21,0.01 µM,3.4 µM,< 10 µM,–,–,–,–,–,–
N#Cc1ccc(N2C(=O)NC3(CCN(c4ccc(-c5nc6cc(C(F)(F)F)ccc6[nH]5)cn4)CC3)C2=O)cc1,0.377 µM,–,–,–,–,–,–,–,–
O=C1OC2(CCN(c3ccc(-c4nc5cc(Cl)ccc5[nH]4)cn3)CC2)c2ccccc21,0.052 µM,–,–,–,–,–,–,–,–
O=C(O)c1ccc2c(c1)C(=O)OC21CCN(c2ccc(-c3nc4cc(C(F)(F)F)ccc4[nH]3)cn2)CC1,–,–,< 10 µM,–,–,–,–,0.56 µM,–
Cc1cccc(Cl)c1NC(=O)N1CCN(c2ccc(-c3nc4cc(C(F)(F)F)ccc4[nH]3)cn2)CC1,0.089 µM,–,–,–,–,–,–,–,–
O=S1(=O)CCC(N2CCN(c3ccc(-c4nc5cc(C(F)(F)F)ccc5[nH]4)cn3)CC2)C1 (stereo unspecified),0.131 µM,–,–,–,–,–,–,–,–
CS(=O)(=O)C1CCN(c2ccc(-c3nc4cc(C(F)(F)F)ccc4[nH]3)cn2)CC1,0.216 µM,–,–,–,–,–,–,–,–
Clc1ccc2[nH]c(-c3ccc(N4CCC5(CC4)OCc4ccccc45)nc3)nc2c1,0.137 µM,–,–,–,–,–,–,–,–
O=C(O)CC1CCC2(CC1)CCN(c1ccc(-c3nc4cc(C(F)(F)F)ccc4[nH]3)cn1)CC2,0.006 µM,10.8 µM,< 4 µM,6.4 µM,> 30 µM,1.76,45 µM,–,–
O=C1OC2(CCN(c3ccc(-c4nc5cc(C(F)(F)F)ccc5[nH]4)cn3)CC2)CN1c1ccccc1,1.41 µM,–,–,–,–,–,–,–,–
O=C(O)CN1CCC2(CC1)CCN(c1ccc(-c3nc4cc(C(F)(F)F)ccc4[nH]3)cn1)CC2,> 10 µM,> 50 µM,207 µM,> 50 µM,> 30 µM,1.38,168 µM,4.8 µM,–
O=C(O)CC1CCC2(CCN(c3ccc(-c4nc5cc(C(F)(F)F)ccc5[nH]4)cn3)CC2)OC1 (racemic),–,> 50 µM,179 µM,> 50 µM,> 30 µM,1.52,172 µM,7.8 µM,–
O=C(O)CC1CCOC2(CCN(c3ccc(-c4nc5cc(C(F)(F)F)ccc5[nH]4)cn3)CC2)C1 (racemic),–,> 50 µM,185 µM,> 50 µM,> 30 µM,1.43,184 µM,–,–
O=C(O)CC1CCC2(CCN(c3ccc(-c4nc5cc(C(F)(F)F)ccc5[nH]4)cn3)CC2)O1 (racemic),–,> 50 µM,170 µM,> 50 µM,> 30 µM,1.55,149 µM,> 60 µM,CL (Rattus norvegicus): 34.2 mL/min/kg
O=C(O)CC1COC2(CCN(c3ccc(-c4nc5cc(C(F)(F)F)ccc5[nH]4)cn3)CC2)C1 (racemic),–,> 50 µM,170 µM,> 50 µM,> 30 µM,1.51,182 µM,–,IC50 [9]: 0.178 µM
"O=C(O)CC1CCC2(CCN(c3ccc(-c4nc5cc(C(F)(F)F)ccc5[nH]4)cn3)CC2)OC1 (single isomer, unassigned; ent B)",–,25.6 µM,–,13.3 µM,> 30 µM,–,–,1.2 µM,–
"O=C(O)CC1CCC2(CCN(c3ccc(-c4nc5cc(C(F)(F)F)ccc5[nH]4)cn3)CC2)O1 (single isomer, unassigned; form 1)",–,–,–,–,–,–,–,16 µM,solubility [2]: > 200 µM; logD [4]: 1.52; solubility [7]: 190 µM
"O=C(O)CC1CCC2(CCN(c3ccc(-c4nc5cc(C(F)(F)F)ccc5[nH]4)cn3)CC2)O1 (single isomer, unassigned; form 2)",–,39.5 µM,–,> 50 µM,> 30 µM,–,–,17.4 µM,solubility [2]: 163 µM; logD [4]: 1.58; solubility [7]: 147 µM
O=C(O)CC1CCC2(CCN(c3ccc(-c4nc5cc(C(F)(F)F)ccc5[nH]4)cn3)CC2)OC1 (stereo in doubt),–,20.4 µM,–,19.5 µM,> 30 µM,–,–,0.8 µM,–
O=C(O)CC1CCOC2(CCN(c3ccc(-c4nc5cc(C(F)(F)F)ccc5[nH]4)cn3)CC2)C1 (stereo in doubt; form 1),–,45.2 µM,–,> 50 µM,> 30 µM,–,–,–,solubility [2]: 173 µM; logD [4]: 1.48; solubility [7]: 168 µM
O=C(O)CC1CCOC2(CCN(c3ccc(-c4nc5cc(C(F)(F)F)ccc5[nH]4)cn3)CC2)C1 (stereo in doubt; form 2),–,35.1 µM,–,> 50 µM,> 30 µM,–,–,–,solubility [2]: 169 µM; logD [4]: 1.47; solubility [7]: 174 µM
